Results as given in patent publication US20070275953A1 (priority 2003, published 2007).
Read-outs that look alike come from different tables or passages of the source.

How the values were obtained:
[1] = system: HIV-1 mutant Asn103/Ile108RT in TZM-bl cells; test: Anti-HIV assay on TZM-bl cells, Asn103/Ile108RT double mutant; format: cell-based; settings: read-out: EC50 Asn103/Ile108RT TZM-bl
Source text: (§1) In order to introduce mutation(s) at the level of the pol gene coding for the RT in the pNL4-3 plasmid containing the complete viral genome (Adachi et al., 1986. J. Virol., Vol. 59 p 284-291) we used the “Quick change mutagenesis kit” (Stratagene). The following mutations were separately introduced in pNL4-3: L100I, K103N, V108I, Y181C, Y188C, and the double mutations K103N/V108I. These mutations were chosen because of the resistance that they confer to existing NNRTI. The production procedure of the mutant viral stocks is identical to the one described above.
Anti-HIV activity and cytotoxicity of the compounds were tested on the TZM-b1 cell line. The TZM-b1 cell line (Wei et al. 2002. Antimicrob. Agents Chemother. Vol. 46, p 1896-1905) was received from the NIH AIDS Research and Reference Reagent Program. These cells were cultured in complete DMEM medium supplemented with 10% fetal bovine serum (FBS), and 1% Penicillin/Streptomycin. Exponentially growing cells were trypsinized, centrifuged and split twice weekly at 5 10^4 cells/ml.
The anti-HIV assay with TZM-b1 cells is essentially the same as described above with P4 cells. The main difference between the two cell lines is that the TZM-b1 cells express at their surface both the CD4 and CCR5 proteins, acting as receptor and co-receptor for HIV entry, respectively (Wei et al. 2002. Antimicrob. Agents Chemother. Vol. 46, p 1896-1905). This feature makes the cells very sensitive to infection by the virus. The TMZ-b1 cells were infected with equal amount of cell-free virus, corresponding to 10 ng of HIV p24 antigen. This amount is ten times lower than the amount used to infect the P4 cells.

[2] = system: HIV-1 with WT (wild type) RT in PBMC; test: Anti-HIV assay on PBMC, WT RT (p24); format: cell-based
Protocol: Wurzburg Jurkat T cells (subclone JR) were transfected with 10 μg of the circularly permuted infectious molecular clone HIVNL4-3 (Adachi et al., 1986. J. Virol, 59 (2), p 284-291). Two days later, co-cultivation with SupT1 cells (a human T-cell lymphoma cell line) was initiated to facilitate rapid production of progeny virions. Production of virus was measured by using the Innotest HIV Antigen mAb p24 kit (Innogenetics). At the peak of production cultures were harvested and filtered. The virus stocks were stored at −80° C. until used.
Anti-HIV activity of the compounds was tested on Peripheral Blood Mononuclear Cells (PBMCs). These cells were separated from the blood of healthy donor using established procedures. PBMCs were cultured in RPMI medium supplemented with 10% fetal bovine serum (FBS), 1% Penicillin/Streptomycin and 20 U/ml of Interleukin-2.
PBMCs isolated from the blood of healthy donor contain CD4^+ T-lymphocytes which are one of the main targets of HIV in infected individuals.
Briefly, in the anti-HIV assay PBMCs, activated with phytohemagglutinin, were infected with HIV-1. 100 μl of infected PBMCs were seeded in 96-well plate at a concentration of 1 10^5 cells/ml, and 100 μl of the different drugs dilutions were added to the cells. After 4 days of incubation at 37° C., 5% CO2, cells cultures supernatants were collected. The amount of the viral capsid protein p24 in the supernatants was measured using the Innotest HIV Antigen mAb P24 kit (Innogenetics).

[3] = system: HIV-1 mutant Asn103RT in P4 cells; test: Anti-HIV assay on P4 cells, Asn103RT mutant; format: cell-based
Source text: as §1
Anti-HIV activity and cytotoxicity of the compounds were tested on a P4 cell line. The P4 cell line (Clavel & Charneau, 1994. J. Virol., Vol. 68 p 1179-1185) was provided by Dr. François Clavel (Unité de recherche antivirale de l'hôpital Xavier Bichat Paris: Inserm). The P4 cells were cultured in complete DMEM medium supplemented with 10% fetal bovine serum (FBS), 0.5% of Penicillin/Streptomycin and G418 at 0.5 mg/ml. Exponentially growing cells were trypsinized, centrifuged and split twice weekly at 5.10^4 cells/ml.
The P4 cells are HIV-infectible Hela-CD4 cells that carry the bacterial lacZ gene under the control of the HIV-1 long terminal repeat (LTR). In this cell line, transcription of the LacZ gene is driven by the HIV-1 LTR. […]
Briefly, in the anti-HIV assay 100 Ål of P4 cells were plated in 96-well plate at a concentration of 0.4 10^5 cells/ml and incubated at 37° C., 5% CO2. […] After 48 h of incubation at 37° C., 5% CO2, β-galactosidase activity was measured using chlorophenol red-β-D-galactopyranoside assays.
The absorbance was measured on a Benchmark™ Microplate Reader (Biorad) (λ=570 nm) and compared with 12 cell control replicates (no virus or drug added) and 12 virus control wells (no drug added). […] The 50% effective concentration (Ec50) was calculated from each dose response curve using the CurveExpert 1.3 software. […]

[4] = system: HIV-1 with WT (wild type) RT in P4 cells; settings: published values; read-out: Nevirapine activity, published values; cited from earlier work
[5] = Human immunodeficiency virus 1, TZM-bl
[6] = TZM-bl, double mutant Asn103/Ile108RT
[7] = Human immunodeficiency virus 1, read-out: EC50 Asn103RT P4

With `O=C1Nc2ccc(Cl)cc2[C@@](C#CC2CC2)(C(F)(F)F)O1` [Efavirenz, reference compound] the EC50 [1, 5] was 0.15 µM.

Compound `CCc1c(C)[nH]c(=O)c(C)c1OC1CC(C)CC(C)C1` (stereo not drawn) [Z154] has an EC50 [1, 6] of 0.231 µM.

For `CCc1c(C)[nH]c(=O)c([N+](=O)[O-])c1OC1CC(C)CC(C)C1` (stereo not drawn) [Z91inv, 3-nitro-5-ethyl-6-methyl-4-[(3,5-dimethylcyclohexyl)oxy]pyridine-2(1H)-one], the melting point was 206 to 207 °C, the EC50 ([2]; Human immunodeficiency virus 1) was < 0.001 µM and the EC50 [3, 7] was 0.089 µM.

`CCc1c(C)[nH]c(=O)c(CO)c1OC1CC(C)CC(C)C1` (stereo not drawn) [Z45inv] showed an EC50 [2] of 0.018 µM.

Compound `CCc1c(C)[nH]c(=O)c(N(C)C)c1OC1CC(C)CC(C)C1` (stereo not drawn) [Z150, 3-(dimethylamino)-5-ethyl-6-methyl-4-[(3,5-dimethylcyclohexyl)oxy]pyridine-2(1H)-one] has an EC50 [1, 5] of 0.158 µM and a melting point of 129 to 130 °C.

With `CCc1c(C)[nH]c(=O)c(CSC(C)=O)c1OC1CC(C)CC(C)C1` (stereo not drawn) [Z114] the EC50 [2] was < 0.001 µM and the EC50 ([3]; P4, mutant Asn103RT, read-out: EC50 Asn103RT P4) was 0.643 µM.

For `CCOC(=O)c1c(OC2CC(C)CC(C)C2)c(CC)c(C)[nH]c1=O` (single isomer, unassigned) [Z37inv], the EC50 [2] was 0.054 µM.

For `CCc1c(C)[nH]c(=O)c(CN=[N+]=[N-])c1OC1CC(C)CC(C)C1` (stereo not drawn) [Z153], the EC50 [1, 6] was 0.366 µM.

In the case of `Cc1ccnc2c1NC(=O)c1cccnc1N2C1CC1` [Nevirapine, reference compound], the EC50 ([2]; Human immunodeficiency virus 1) is listed as 0.03 µM, the EC50 [4] is listed as 0.01 to 0.1 µM and the EC50 [3, 7] is listed as 1.71 µM.
